Earlier results, collected in patent publication US8349557B2 (priority 2008, dated 2013).
Where two headings read alike, the source gives them in different places.

Legend:
skeletal muscle = details: in some patients
[1] = system: rat hepatoma cell line, H-4-II-E cells
cerebellar granule cells = details: 24 hours

autophagic vacuolation in skeletal muscle (skeletal muscle) | SMILES | degradation of long-lived proteins (lysosomes) | lysosomal pH (lysosomes) | V-ATPase activity (V-ATPase; 0.3 nM bafilomycin) | V-ATPase activity (V-ATPase; 10 nM bafilomycin) | V-ATPase activity (V-ATPase; 100 nM bafilomycin (high-dose)) | effect on macroautophagy / autophagosome formation [1] | effect on macroautophagy / autophagosome formation ([1]; non-starved cells, 100 nM bafilomycin, one hour) | vacuoles in the cytoplasm (cerebellar granule cells; 0.3 nM bafilomycin) | vacuoles in the cytoplasm (cerebellar granule cells; 10 nM bafilomycin)
florid autophagic vacuolation | CCN(CC)CCCC(C)Nc1ccnc2cc(Cl)ccc12 (stereo not shown) [chloroquine] | impairs the degradation of long-lived proteins | raises their pH |  |  |  |  |  |  | 
 | CO/C1=C\C(C)=C\[C@@H](C)[C@@H](O)[C@@H](C)C/C(C)=C/C=C/[C@H](OC)[C@@H]([C@@H](C)[C@@H](O)[C@H](C)[C@@]2(O)C[C@@H](O)[C@H](C)[C@@H](C(C)C)O2)OC1=O [bafilomycin] |  |  | 40-50 % of normal | below 10% | completely eliminates V-ATPase activity | explosive autophagosome formations occupying vast portions of the cytoplasm | no significant effect | not present | accumulation of large, swollen, single-membraned vacuoles in the cytoplasm with electron-dense deposits
